A short description of data set [1]: Lipophilicity, logD of compound by RP-HPLC analysis. Format: physicochemical.
Data set [2] can be described thus: AUCinfinity in CD(SD) rat at 3 mg/kg, po administered as single dose and measured after 24 hrs. The following applies: in vivo. Format: ADME, organism-based.
Data set [3] is described as follows: Elimination half life in CD(SD) rat at 1 mg/kg, iv administered as single dose and measured after 24 hrs. Format: ADME, organism-based. Conditions: in vivo, read-out: beta t1/2 (converted).
A short description of data set [4]: Volume of distribution at steady state in CD(SD) rat at 1 mg/kg, iv administered as single dose and measured after 24 hrs. Format: ADME, organism-based. Conditions: in vivo, read-out: Vdss.
Data set [5] in a line: Metabolic stability in human liver microsomes assessed as compound remaining at 5 umol/L measured after 60 mins by UPLC/MS analysis. It counts as ADME, Microsome. The following applies: dose 5 µmol/L, read-out: Stability. In general terms: Microsomes from liver hold many membrane-bound enzymes, among them those of drug oxidation.
The nature of data set [6]: Oral bioavailability in CD(SD) rat at 3 mg/kg administered as single dose and measured after 24 hrs. It counts as ADME, organism-based. The following applies: in vivo.
Data set [7] is described as follows: Apparent permeability in human Caco-2 cells at 25 umol/L incubated for 2 hrs by LC/MS/MS analysis. Format: ADME, cell-based. The following applies: dose 25 µmol/L. In general terms: Caco-2 cells form a polarised layer with tight junctions and transporters.
A short description of data set [8]: MRT in CD(SD) rat at 3 mg/kg, po administered as single dose and measured after 24 hrs. It counts as ADME, organism-based. Conditions: in vivo.
Data set [9] in a line: Total body clearance in CD(SD) rat at 1 mg/kg, iv administered as single dose and measured after 24 hrs. Format: ADME, organism-based. The following applies: in vivo.
Data set [10] has as its target T1, Nuclear receptor ROR-gamma (Homo sapiens, UniProt P51449).
T1 sequence (P51449 whole entry): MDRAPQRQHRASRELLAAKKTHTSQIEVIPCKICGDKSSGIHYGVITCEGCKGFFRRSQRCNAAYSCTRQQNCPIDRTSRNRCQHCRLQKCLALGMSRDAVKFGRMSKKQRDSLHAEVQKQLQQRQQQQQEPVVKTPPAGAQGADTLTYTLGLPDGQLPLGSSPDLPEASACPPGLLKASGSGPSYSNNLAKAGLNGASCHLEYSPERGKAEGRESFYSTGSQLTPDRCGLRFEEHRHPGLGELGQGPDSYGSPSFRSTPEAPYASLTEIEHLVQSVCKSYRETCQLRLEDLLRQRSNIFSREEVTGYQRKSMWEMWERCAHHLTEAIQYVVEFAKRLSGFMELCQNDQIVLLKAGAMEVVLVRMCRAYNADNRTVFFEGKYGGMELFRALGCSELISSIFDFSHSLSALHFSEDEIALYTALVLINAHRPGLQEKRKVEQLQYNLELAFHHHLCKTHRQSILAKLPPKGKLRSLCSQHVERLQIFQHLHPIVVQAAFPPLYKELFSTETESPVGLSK
Description: Inhibition of GAL4 DNA-binding domain fused RORgamma (unknown origin) transfected in CHO-K1 cells incubated for 2 days by luciferase assay. Format: cell-based.

The term logD denotes the decadic logarithm of the distribution of all forms, ionised or not, between an organic phase and buffer at a given pH. The low end stands for lower lipophilicity, the high end for higher lipophilicity. The term AUC(0-inf) denotes total exposure, with the tail of the curve extrapolated. Higher therefore signals more exposure. The bioavailability is dose-corrected exposure relative to a reference, in per cent. Read a high bioavailability as good availability. One may read the Papp as a coefficient for how fast a substance crosses the barrier. For orientation: MRT means a mean duration of stay, worked out from the concentration-time curve. The term clearance denotes a measure of how efficiently the substance is removed, as volume per time. The low end stands for a low capacity for elimination, the high end for a high capacity for elimination. Usually EC50 stands for the concentration giving half of the maximal effect.

The compound `Cc1ccc(NC(=O)C[C@H](CCC(=O)O)c2nnn([C@H]3C[C@@H](CC(C)(C)C)C3)c2C2CC2)c(Cl)c1` returned a logD in data set [1] of 4.2. This compound gave an AUC(0-inf) in data set [2] of 2.8 µM·h. Moreover, the half-life in [3] was 1.5 h. Further, in data set [4], the Vd came to 0.67 L/kg. Besides, the remaining at 1 h, 5 µM in data set [5] amounted to 86%. In data set [6], this compound returned a bioavailability of 46%. The apparent permeability coefficient (Papp) at 2 h, 25 µM in data set [7] stood at 30.9 ×10⁻⁶ cm/s. Moreover, the mean residence time MRT in data set [8] was determined as 3.6 h. The compound also gave a clearance in [9] of 16.5 mL/min/kg.
Compound `Cc1ccc(NC(=O)C[C@H](CCC(=O)O)n2nnc([C@H]3C[C@@H](CC(C)(C)C)C3)c2C2CC2)c(Cl)c1` showed a logD in data set [1] of 4.3. The total exposure AUC(0-inf) in data set [2] was found to be 2 µM·h. Further, the half-life in data set [3] is 1.5 h. Also, the Vd in data set [4] stood at 1.4 L/kg. Moreover, the half-maximal effective concentration (EC50) in data set [10] amounted to 22 nM. In [5], the remaining at 1 h, 5 µM amounted to 73%. This compound also returned a bioavailability in [6] of 61%. Also, the apparent permeability coefficient (Papp) at 2 h, 25 µM in [7] was 22.6 ×10⁻⁶ cm/s. This compound also yielded a mean residence time (MRT) in data set [8] of 2.5 h. In [9], this compound had a clearance of 30 mL/min/kg.
For the compound `Cc1cc(F)ccc1NC(=O)C[C@H](CC(=O)O)c1noc([C@H]2C[C@@H](CC(C)C)C2)c1C1CC1`, the logD in data set [1] is 3.9. The compound also returned an EC50 in data set [10] of 64 nM. Moreover, the remaining at 1 h, 5 µM in [5] stood at 82%. Besides, the Papp at 2 h, 25 µM in [7] was 38 ×10⁻⁶ cm/s.
In the case of `Cc1ccc(NC(=O)CC(Cc2nnn[nH]2)c2nnc([C@H]3C[C@@H](CC(C)C)C3)n2C2CC2)c(C)c1` (mixture of isomers), the pH-dependent lipophilicity (logD) in data set [1] turned out to be 3.1. The same compound showed an EC50 in data set [10] of 6000 nM. In addition, the remaining at 1 h, 5 µM in [5] was 91%. Besides, the apparent permeability (Papp) at 2 h, 25 µM in [7] turned out to be 0.2 ×10⁻⁶ cm/s.
The corresponding values for `Cc1ccc(NC(=O)CC(c2nnc([C@H]3C[C@@H](CC(C)C)C3)n2C2CC2)C2CNC2)c(C)c1.Cl` (mixture of isomers) are 3.7, above 20000 nM, 95% and below 0.1 ×10⁻⁶ cm/s.
The corresponding values for `Cc1cc(C)c(C)c(NC(=O)C[C@H](CC(=O)O)c2noc([C@H]3C[C@@H](CC(C)C)C3)c2C2CC2)c1` are 4.5, 63 nM, 64% and 17 ×10⁻⁶ cm/s.
In turn, `Cc1ccc(NC(=O)CC(CC(=O)O)c2nnc([C@H]3C[C@@H](CC(C)C)C3)n2C2CC2)c(C)c1` (mixture of isomers) showed a pH-dependent lipophilicity (logD) in data set [1] of 3.2. In [10], this compound came in with a 50% effective concentration (EC50) of 3000 nM. In addition, in [5], the remaining at 1 h, 5 µM came to 103%. Moreover, in data set [7], the apparent permeability coefficient (Papp) at 2 h, 25 µM came out at 0.1 ×10⁻⁶ cm/s.
In turn, `Cc1ccc(NC(=O)C[C@H](Cc2nccs2)c2nnc([C@H]3C[C@@H](CC(C)C)C3)n2C2CC2)c(C)c1` registered a logD in data set [1] of 4.6. The EC50 in data set [10] is below 32 nM. Moreover, the remaining at 1 h, 5 µM in data set [5] turned out to be 69%. Moreover, the Papp at 2 h, 25 µM in data set [7] was 29.4 ×10⁻⁶ cm/s.
The corresponding values for `Cc1ccc(NC(=O)C[C@H](CC(C)(C)O)c2nnc([C@H]3C[C@@H](CC(C)C)C3)n2C2CC2)c(C)c1.Cl` are 4.4, 30 nM, 0% and 25.3 ×10⁻⁶ cm/s.
The compound `Cc1ccc(NC(=O)C[C@H](Cc2nnn[nH]2)c2noc([C@H]3C[C@@H](CC(C)C)C3)c2C2CC2)c(C)c1` registered a logD in data set [1] of 4.1. Also, in data set [10], the midpoint of the response, the EC50, lay at 63 nM. Further, the remaining at 1 h, 5 µM in [5] was 0%. Besides, the Papp at 2 h, 25 µM in [7] came to 21.8 ×10⁻⁶ cm/s.
`Cc1ccc(NC(=O)C[C@H](CC(=O)O)c2noc([C@H]3C[C@@H](CC(C)(C)C)C3)c2C2CC2)c(C)c1` (mixture of isomers) showed a logD in [1] of 4.5. This compound also yielded a concentration for a half-maximal effect (EC50) in [10] of 29 nM. The remaining at 1 h, 5 µM in [5] is 82%. Besides, in data set [7], the apparent permeability coefficient (Papp) at 2 h, 25 µM is 24.6 ×10⁻⁶ cm/s.

These data come from ChEMBL document CHEMBL5537159, “Discovery and SAR of JTE-151: A Novel RORγ Inhibitor for Clinical Development” (J Med Chem, 2024).
